We go through 1 molecule from article PMC12118337, “Development of a Peptide Inhibitor Targeting the C‐SH2 Domain of the SHP2 Phosphatase” (Chembiochem, 2025).

Structures are written as SMILES. Residues, ends and D or L forms follow the SMILES beside them. *: point of attachment. 5FAM = O=C1OC2(c3ccc(O)cc3Oc3cc(O)ccc32)c2ccc(C(=O)*)cc21; X1 = O=C(O)C(C(=O)O)*

The experiment has as its target T1, SHP2 PTP domain (Homo sapiens, UniProt Q06124).
T1 construct: SHP2 N-SH2 domain (1–105), C-SH2 domain (106–220), PTP domain (224–541) and; His6 (pETM22 vector) (N, cleaved yes); made in house; host or cells: E. coli BL21(DE3) Tuner
T1 sequence (Q06124 224-541): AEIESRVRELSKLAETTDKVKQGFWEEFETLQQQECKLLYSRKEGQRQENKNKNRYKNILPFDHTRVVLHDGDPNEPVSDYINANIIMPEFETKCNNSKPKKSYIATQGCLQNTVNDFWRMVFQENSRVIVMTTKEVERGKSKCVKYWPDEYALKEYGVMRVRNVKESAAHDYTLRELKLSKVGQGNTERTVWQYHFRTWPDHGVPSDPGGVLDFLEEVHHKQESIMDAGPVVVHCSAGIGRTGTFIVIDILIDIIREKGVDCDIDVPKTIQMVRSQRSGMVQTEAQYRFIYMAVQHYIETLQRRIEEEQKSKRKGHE
Briefly: FP binding assay, SHP2 PTP domain. The following applies: 100 nM peptide, increasing C-SH2, N-SH2 or PTP domain. The procedure: buffer and stored in 5 mL binding buffer at 4°C. His-tagged 3C protease (0.5 mg; EMBL) was added to the pooled eluted fractions and dialysed using Spectra Por Dialysis Tubing (MWCO 6-8 kDa, 23 mm; Spectrum Labs) in 1 L of binding buffer at 4°C for 3 hours, then overnight in fresh buffer. A new column was prepared by loading 2 mL Ni-NTA Agarose (Invitrogen) as a 50% slurry in EtOH. The column was washed with 10 mL H2O to remove the EtOH and equilibrated with 10 mL binding buffer. The protein/3C protease mixture was loaded onto the column and incubated for 1 hour at 4°C on a rocker. […] Protein purification was monitored by SDS-PAGE using NuPAGE 4-12% Bis-Tris Protein Gels (Invitrogen) run in MOPS buffer (50 mM MOPS, 50 mM Tris-HCl pH 7.7, 1 mM EDTA, 0.1% SDS) followed by Coomassie staining using Coomassie Brilliant Blue (Roth). […]
4. Fluorescence polarization
Fluorescence polarization (FP) was used to measure the binding of FAM-labelled peptides to the SHP2 C-SH2, SHP2 N-SH2, SHP2 PTP, CSK SH2 or Src SH2 domains. […]
concentration of 100 nM in a final volume of 200 µL. […] The FP was immediately measured on a Synergy H1 Microplate Reader (BioTek) with the excitation and emission monitored at 485 nm and 528 nm, respectively, over 30 minutes. FP values were automatically calculated by the Gen5 3.03 (BioTek) software associated with the microplate reader. […]

For `CC[C@H](C)[C@H](NC(=O)[C@@H](NC(=O)[C@H](C)NC(=O)[C@H](Cc1ccc(OC(C(=O)O)C(=O)O)cc1)NC(=O)[C@H](CCC(=O)O)NC(=O)[C@@H](NC(=O)[C@H](CCC(N)=O)NC(=O)c1ccc2c(c1)C(=O)OC21c2ccc(O)cc2Oc2cc(O)ccc21)[C@@H](C)O)[C@@H](C)O)C(=O)N[C@@H](CCCCN)C(=O)N[C@@H](Cc1c[nH]cn1)C(=O)N1CCC[C@H]1C(N)=O` [peptide 26] (5FAM-QTEY(X1)ATIKHP-NH2), the “binding selectivity for C‐SH2 over N‐SH2 and PTP domains” value was “maintained binding selectivity”.
